Where a name gives a salt, the structure may show the parent alone.
Legend:
NMDA receptor [1] = tested on: T1, NMDA receptor; assay: NMDA receptor assay (fura-2 cytosolic calcium in cultured rat cerebellar granule cells); type: cell-based; settings: Table I, read-out: fura2 data IC50
T1 construct: fura2 data IC50; rat cerebellar granule cells
Description: All culture media, antibiotics, and enzymes, with the exception of fetal calf serum (Hyclone Laboratories, Logan, Utah), were purchased from Sigma Chemical Co., St. Louis, Mo. Fura-2/AM was obtained from Molecular Probes, Eugene, Oreg., and was prepared freshly in dimethylsulfoxide (DMSO) before use. Ionomycin (Calbiochem) was stored as a stock solution in DMSO. Nifedipine (Sigma) and nimodipine (RBI) were dissolved in absolute ethanol. […] All other agents were dissolved in phosphate-buffered saline (PBS), and adjusted to pH 7.4
Preparation of Rat Cerebellar Granule Cell (RCGC) Cultures
Briefly, primary cultures of cerebellar granule neurons were obtained from 8-day-old rats and plated onto squares of Aclar plastic coated with poly-L-lysine. The plastic squares were placed in 12-well culture plates, and ˜7.5×10^5 cells were added to each well. Cultures were maintained in Eagles's medium containing 25 mM KCl, 10% fetal calf serum, 2 mM glutamine, 100 μg/ml gentamicin, 50 U/ml penicillin, and 50 μg/ml streptomycin at 37° C. in a humid atmosphere of 5%CO2 in air for 24 hr before the addition of cytosine arabinoside (10 μM, final). No changes of culture medium were made until the cells were used for fluorescence recording 6-8 days after plating.
Measurement of Cytosolic Calcium
(“Ca^2+-free” buffer contained no added CaCl2 and 30 μM EGTA). The cells were then rinsed with the same buffer, lacking fura-2/AM, and maintained at room temperature until used for measurement of fluorescence, the Aclar squares were transferred into quartz cuvettes containing 2 ml of the HEPES buffer. The cuvette was then placed into a thermostatted holder equipped with a magnetic stirrer in a custom-built spectrofluorimeter (Biomedical Instrumentation Group, University of Pennsylvania, Philadelphia, Pa.). The size of the plastic Aclar square was such as to fit snugly in the cuvette when placed at a diagonal and therefore suspend itself over the spin bar. Fluorescence was measured using excitation and emission wavelengths of 340 and 510 nm, respectively. The amplitude of the evoked increase in fluorescence and subsequent inhibition were recorded and the concentration of [Ca^2+]i was calculated using the formula:
[Ca^2+]=Kd (F-Fmin)/(Fmax-F) (Eq. 1)
F=fluorescence amplitude evoked at a particular time point or concentration of compound;
Fmin=minimum fluorescence determined after the addition of a 2.5 M TRIS/0.3 M EGTA solution;
Fmax=maximum fluorescence determined following the addition of 7 mM ionomycin in DMSO; and […]

NMDA receptor [2] = target: T2, NMDA receptor; assay: [3H]MK-801 binding assay (rat cortex synaptic plasma membranes); settings: read-out: [3H]MK-801 data IC50, Table I
T2 construct: rat cortex membranes
Description: Synaptic plasma membranes (SPMs) from rat cortex were prepared as follows. Isolated cerebral cortices from male and female rats were purchased from Pel-Freez (Rogers, Ariz.) in bulk, and stored at −80° C. The cortices from 25 rats were thawed and pooled. […] The resulting homogenates were centrifuged for 10 min at 1,000×g in a T865 rotor, UltraPro80 Sorvall Centrifuge. The supernatant was removed and subsequently centrifuged at 30,000×g for 30 min. […] Membranes were washed by re-suspension in 500 ml of 5 mM K-EDTA (pH 7.0), incubated at 32° C. for 30 min with stirring, and centrifuged at 100,000×g for 30 min. The final pellet was resuspended in 60 ml of […] K-EDTA (pH 7.0) and stored in aliquots at −80° C. The extensive washing procedure utilized in this assay was designed to minimize the concentrations of glutamate and glycine (co-agonists at the NMDA receptor-ionophore complex) present in the membrane preparation.
On the day of assay, aliquots of SPM were thawed and resuspended in 75 vols of 5 mM K-EDTA, pH 7.0. SPM were centrifuged at 100,000×g for 30 min at 4° C.
The SPM pellet was resuspended in assay buffer (30 mM EPPS, 1 mM K-EDTA, pH 7.0) by polytron. […] Binding was started by the addition of the tissue homogenate. The assay was terminated by the addition of 4 ml ice-cold buffer, followed by filtration over glass-fiber filters (Schleicher & Schuell No. 30) on a Millipore 12-well filtration manifold. Filters were washed with another 3 ×4 ml ice-cold buffer (pH 7.0). Radioactivity on the filters was measured using Fisherbrand Scinti-Safe scintillation cocktail. Samples were shaken for 45-60 min on a shaker platform to solubilize the radioactivity. Counting for ^3H was performed in a Beckman 6000IC LS Scintillation Counter for 4 min per sample.

[3] = target: T3, norepinephrine transporter site (Rattus norvegicus, UniProt Q63380); assay: Norepinephrine reuptake inhibition assay ([3H]nisoxetine binding, rat forebrain membranes); settings: Table I; read-out: NE Uptake Ki
T3 construct: tissue NovaScreen (performed the assay); host or cells: rat forebrain membranes
T3 sequence (Q63380 1-617): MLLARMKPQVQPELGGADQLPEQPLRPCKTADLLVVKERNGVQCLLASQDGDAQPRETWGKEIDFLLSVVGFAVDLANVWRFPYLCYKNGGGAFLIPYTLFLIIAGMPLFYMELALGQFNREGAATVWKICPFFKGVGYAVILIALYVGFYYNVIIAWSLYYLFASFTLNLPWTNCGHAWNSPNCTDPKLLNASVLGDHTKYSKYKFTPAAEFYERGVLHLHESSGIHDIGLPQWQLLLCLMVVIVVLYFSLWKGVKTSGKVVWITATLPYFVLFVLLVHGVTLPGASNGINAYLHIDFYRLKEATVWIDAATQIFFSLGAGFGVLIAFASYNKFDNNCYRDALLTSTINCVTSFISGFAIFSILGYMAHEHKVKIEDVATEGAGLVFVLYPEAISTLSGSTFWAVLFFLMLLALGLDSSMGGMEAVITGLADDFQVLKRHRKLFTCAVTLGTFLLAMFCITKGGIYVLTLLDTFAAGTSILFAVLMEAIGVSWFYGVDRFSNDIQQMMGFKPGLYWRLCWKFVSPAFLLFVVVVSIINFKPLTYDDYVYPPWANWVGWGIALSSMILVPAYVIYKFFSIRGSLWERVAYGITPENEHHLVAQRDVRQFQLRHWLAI
Description: Monoamine Transporter Minding Assays
Monoamine transporter binding assays (reuptake inhibition assays) were performed by NovaScreen using standard radioligand binding assays. The transporter binding assays are described briefly below:
Norepinephrine Reuptake Inhibition Assay
Reactions were terminated by rapid vacuum filtration onto glass fiber filters.

Solubility = type: physicochemical; settings: hydrochloride salt

## CNCCC(c1cccc(F)c1)c1cccc(F)c1 [Compound 60, N-Methyl-3.,3-bis(3-fluorophenyl)propylamine hydrochloride]
NMDA receptor [1]
  IC50: 416 nM
NMDA receptor [2]
  IC50: 641 nM
[3]
  Ki: > 10000 nM
Solubility; ethanol, organic solvent or mixture, EtOH
  solubility: 1000 mg/mL
Solubility; water, H2O
  solubility: 2000 mg/mL
